From patent US20230150924A1, “NOVEL COMPOUND HAVING CANCER METASTASIS INHIBITORY ACTIVITY, PREPARATION METHOD THEREFOR, AND PHARMACEUTICAL COMPOSITION FOR INHIBITING CANCER METASTASIS AND INVASION OR TREATING COLORECTAL CANCER, COMPRISING COMPOUND” (CELLGENTEK CO., LTD., priority 2019, published 2023)

Legend:
KAI1 promoter = KAI1 promoter luciferase reporter assay in transfected Caco2 cells; assay type: cell-based, human; conditions: Homo sapiens, Caco-2, 16 h, 1 μM compound, 16 hours, transfected Caco2 cells, luciferase activity relative to DMSO control (=1); read-out: Relative KAI promoter activity
[1] = test system: invasion of colorectal cancer cells; experiment: In vivo relative invation (invasion; EV and KITENIN controls, no method described); conditions: relative to EV (=1); KIT = KITENIN

| SMILES | fold induction at 1 µM (KAI1 promoter) | In vivo relative invation [1] |
| --- | --- | --- |
| O=C(COc1ccccc1C(=O)NCC(=O)c1ccccc1)NC1CCCCC1 [Example 230, 2-(2-(cyclohexylamino)-2-oxoethoxy)-N-(2-oxo-2-phenylethyl)benzamide] | 1.08 | 1.267 |
| CN(C)Cc1cccc(C(=O)NCC(=O)c2ccccc2)c1 [Example 231, 3-((dimethylamino)methyl)-N-(2-oxo-2-phenylethyl)benzamide] | 1.56 | 1.122 |
| O=C(CNC(=O)c1cccc(CN2CCc3ccccc3C2)c1)c1ccccc1 [Example 232, 3-((3,4-dihydroisoquinolin-2 (1H)-yl)methyl)-N-(2-oxo-2-phenylethyl)benzamide] | 1.23 | 1.125 |
| CC(C)N(C)Cc1cccc(C(=O)NCC(=O)c2ccccc2)c1 [Example 233, 3-((isopropyl(methyl)amino)methyl)-N-(2-oxo-2-phenylethyl)benzamide] | 1.15 | 1.026 |
| O=C(CNC(=O)c1cccc(CN2CCN(c3ncccn3)CC2)c1)c1ccccc1 [Example 235, N-(2-oxo-2-phenylethyl)-3-((4-(pyrimidin-2-yl)piperazin-1-yl)methyl)benzamide] | 1.44 | 1.133 |
| COc1ccccc1N1CCN(Cc2cccc(C(=O)NCC(=O)c3ccccc3)c2)CC1 [Example 236, 3-((4-(2-methoxyphenyl)piperazin-1-yl)methyl)-N-(2-oxo-2-phenylethyl)benzamide] | 1.3 | 1.112 |
| O=C(CNC(=O)c1cccc(CN2CCC(N3CCCCC3)CC2)c1)c1ccccc1 [Example 237, 3-([1,4′-bipiperidin]-1′-ylmethyl)-N-(2-oxo-2-phenylethyl)benzamide] | 1.56 | 1.114 |
| O=C(CNC(=O)c1cccc(CN2CCN(c3ccc([N+](=O)[O-])cc3)CC2)c1)c1ccccc1 [Example 238, 3-((4-(4-nitrophenyl)piperazin-1-yl)methyl)-N-(2-oxo-2-phenylethyl)benzamide] | 1.6 | 1.12 |
| CCN(Cc1cccc(C(=O)NCC(=O)c2ccccc2)c1)c1ccccc1 [Example 239, 3-((ethyl(phenyl)amino)methyl)-N-(2-oxo-2-phenylethyl)benzamide] | 1.08 | 1.135 |
| O=C(CNC(=O)c1cccc(CN2CCN(c3ccccn3)CC2)c1)c1ccccc1 [Example 240, N-(2-oxo-2-phenylethyl)-3-((4-(pyridin-2-yl)piperazin-1-yl)methyl)benzamide] | 1.3 | 1.1 |
| C=CCN(CC=C)Cc1cccc(C(=O)NCC(=O)c2ccccc2)c1 [Example 241, 3-((diallylamino)methyl)-N-(2-oxo-2-phenylethyl)benzamide] | 1.1 | 1.126 |
| CN(Cc1ccccc1)Cc1cccc(C(=O)NCC(=O)c2ccccc2)c1 [Example 242, 3-((benzyl(methyl)amino)methyl)-N-(2-oxo-2-phenylethyl)benzamide] | 1.17 | 1.146 |
| CN(CCO)Cc1cccc(C(=O)NCC(=O)c2ccccc2)c1 [Example 243, 3-(((2-hydroxyethyl) (methyl)amino)methyl)-N-(2-oxo-2-phenylethyl)benzamide] | 1.48 | 1.105 |
| CCCCN(CCO)Cc1cccc(C(=O)NCC(=O)c2ccccc2)c1 [Example 244, 3-((butyl (2-hydroxyethyl)amino)methyl)-N-(2-oxo-2-phenylethyl)benzamide] | 1.51 | 1.1 |
| CC(C)(C)OC(=O)N1CCN(Cc2cccc(C(=O)NCC(=O)c3ccccc3)c2)CC1 [Example 245, tert-butyl 4-(3-((2-oxo-2-phenylethyl)carbamoyl)benzyl) piperazine-1-carboxylate] | 1.35 | 1.126 |
| CCCCN(C)Cc1cccc(C(=O)NCC(=O)c2ccccc2)c1 [Example 246, 3-((butyl (methyl)amino)methyl)-N-(2-oxo-2-phenylethyl)benzamide] | 1.88 | 1.148 |
| CCN(CC)Cc1cccc(C(=O)NCC(=O)c2ccccc2)c1 [Example 247, 3-((diethylamino)methyl)-N-(2-oxo-2-phenylethyl)benzamide] | 1.27 | 1.124 |
| CCCN(CCC)Cc1cccc(C(=O)NCC(=O)c2ccccc2)c1 [Example 248, 3-((dipropylamino)methyl)-N-(2-oxo-2-phenylethyl)benzamide] | 1.3 | 1.116 |
| CCCCN(CC)Cc1cccc(C(=O)NCC(=O)c2ccccc2)c1 [Example 249, 3-((butyl(ethyl)amino)methyl)-N-(2-oxo-2-phenylethyl)benzamide] | 1.35 | 1.113 |
| CCCCCN(CCCCC)Cc1cccc(C(=O)NCC(=O)c2ccccc2)c1 [Example 250, 3-((dipentylamino)methyl)-N-(2-oxo-2-phenylethyl)benzamide] | 1.25 | 0.9781 |
| C#CN(C)Cc1cccc(C(=O)NCC(=O)c2ccccc2)c1 [Example 251, 3-((ethynyl(methyl)amino)methyl)-N-(2-oxo-2-phenylethyl)benzamide] | 2.37 | 1.197 |
| O=C(CNC(=O)c1cccc(CN2CCOCC2)c1)c1ccccc1 [Example 252, 3-(morpholinomethyl)-N-(2-oxo-2-phenylethyl)benzamide] | 1.56 | 1.165 |
| CN1CCN(Cc2cccc(C(=O)NCC(=O)c3ccccc3)c2)CC1 [Example 253, 3-((4-methylpiperazin-1-yl)methyl)-N-(2-oxo-2-phenylethyl)benzamide] | 0.963 | 1.421 |
| O=C(CNC(=O)c1ccc(CN2CCc3ccccc3C2)cc1)c1ccccc1 [Example 254, 4-((3,4-dihydroisoquinolin-2(1H)-yl)methyl)-N-(2-oxo-2-phenylethyl)benzamide] | 2.08 | 0.9143 |
| CC(C)N(C)Cc1ccc(C(=O)NCC(=O)c2ccccc2)cc1 [Example 256, 4-((isopropyl(methyl)amino)methyl)-N-(2-oxo-2-phenylethyl)benzamide] | 2.25 | 1.267 |
| O=C(CNC(=O)c1ccc(CN2CCN(c3ccccc3F)CC2)cc1)c1ccccc1 [Example 257, 4-((4-(2-fluorophenyl)piperazin-1-yl)methyl)-N-(2-oxo-2-phenylethyl)benzamide] | 1.36 | 1.338 |
| O=C(CNC(=O)c1ccc(CN2CCN(c3ncccn3)CC2)cc1)c1ccccc1 [Example 258, N-(2-oxo-2-phenylethyl)-4-((4-(pyrimidin-2-yl)piperazin-1-yl)methyl)benzamide] | 2.31 | 1.223 |
| COc1ccccc1N1CCN(Cc2ccc(C(=O)NCC(=O)c3ccccc3)cc2)CC1 [Example 259, 4-((4-(2-methoxyphenyl)piperazin-1-yl)methyl)-N-(2-oxo-2-phenylethyl)benzamide] | 1.23 | 1.251 |
